The target of assay [1] is T1, slc26a3 (Mus musculus, UniProt Q9WVC8).
T1 construct: host or cells: Fischer rat thyroid (FRT) cells expressing YFP, clonal line FRT-YFP-slc26a3
T1 sequence (Q9WVC8 1-757): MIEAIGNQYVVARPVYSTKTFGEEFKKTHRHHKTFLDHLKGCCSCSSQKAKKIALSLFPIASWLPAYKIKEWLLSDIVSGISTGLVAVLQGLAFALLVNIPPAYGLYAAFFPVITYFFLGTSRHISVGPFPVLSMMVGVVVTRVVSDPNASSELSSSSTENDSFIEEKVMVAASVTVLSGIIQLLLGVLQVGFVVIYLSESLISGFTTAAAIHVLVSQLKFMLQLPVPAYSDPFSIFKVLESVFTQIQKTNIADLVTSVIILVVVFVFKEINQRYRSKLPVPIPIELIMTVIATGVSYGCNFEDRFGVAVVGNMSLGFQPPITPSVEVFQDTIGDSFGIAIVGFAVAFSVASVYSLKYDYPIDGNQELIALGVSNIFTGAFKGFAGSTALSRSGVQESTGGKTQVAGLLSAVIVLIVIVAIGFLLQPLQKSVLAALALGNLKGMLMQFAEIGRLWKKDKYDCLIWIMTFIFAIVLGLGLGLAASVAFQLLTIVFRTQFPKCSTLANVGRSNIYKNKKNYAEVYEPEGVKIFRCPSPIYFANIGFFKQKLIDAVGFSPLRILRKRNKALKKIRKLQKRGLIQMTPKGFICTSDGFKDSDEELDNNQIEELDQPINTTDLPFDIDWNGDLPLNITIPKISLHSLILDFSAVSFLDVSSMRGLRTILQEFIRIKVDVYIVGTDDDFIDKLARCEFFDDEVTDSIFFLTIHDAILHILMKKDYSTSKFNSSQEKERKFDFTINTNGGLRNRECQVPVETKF
Description: slc26a3-mediated Cl-/HCO3- exchange, BCECF cytoplasmic pH in slc26a3-expressing FRT cells. Particulars: increase in cytoplasmic pH, read-out: IC50 for inhibition of slc26a3-mediated Cl-/HCO3- exchange. Format: cell-based, murine. The method, then: (§1) Concentration-dependence measurements for inhibition of slc26a3-mediated exchange of Cl^- and HCO3^-, the physiologically relevant activity of slc26a3, was measured using slc26a3-expressing FRT cells labeled with BCECF as a cytoplasmic pH sensor. Labeled cells were initially incubated in a Cl^--containing HCO3^- buffered solution, and HCO3^- influx / Cl^- efflux with cytoplasmic alkalinization was produced by addition of a gluconate-containing HCO3^- buffered solution. […] Concentration-dependence measurements for inhibition of slc26a3-mediated Cl^-/SCN^- exchange gave an IC50 of ~0.3 µM (FIG. 4B).
YFP-based assays of CFTR, pendrin and TMEM16A were as described. HEK cells transfected to express YFP and SLC26A3, slc26a6 or slc26a9 were functionally assayed using a Cl^-/I^- exchange protocol. Assays of Cl^-/HCO3^- exchange were done using BCECF as an intracellular pH indicator as described for pendrin. Short-circuit current (ISC) measurements in well-differentiated HBE cell cultures were done using techniques known in the art.

In assay [2] the target is T1, slc26a3. The assay is described as follows: slc26a3-mediated Cl-/SCN- exchange. Particulars: read-out: IC50 for inhibition of slc26a3-mediated Cl-/SCN- exchange. Format: cell-based, murine. As to the method:
as §1

In another assay the target is T2, CFTR (Homo sapiens, UniProt P13569).
T2 construct: expressed in transfected cells; host or cells: FRT cells expressing YFP and CFTR
Description: Selectivity: CFTR (forskolin stimulated) YFP assay. It counts as cell-based. Conditions: 10 µM. The text has this:
(§2) To investigate Compound A1 selectivity, transport assays were done on a panel of SLC26-family homologs, and other relevant epithelial ion transporters and channels. […] In separate studies, to investigate possible action of Compound A1 on multiple ion transporters and channels in a human epithelium, human bronchial epithelial (HBE) cells were studied by short-circuit current, with successive additions of amiloride (to block the epithelial sodium channel ENaC), forskolin, CFTRinh-172 (to block CFTR), and ATP (to activate the Ca^2+-activated chloride channel, CaCC) (FIG. 5C).
YFP-based assays of CFTR, pendrin and TMEM16A were as described. HEK cells transfected to express YFP and SLC26A3, slc26a6 or slc26a9 were functionally assayed using a Cl^-/I^- exchange protocol. Assays of Cl^-/HCO3^- exchange were done using BCECF as an intracellular pH indicator as described for pendrin. […]
HEK293 cells transfected with pIRES-YFP-slc26a9 were plated in 96-well black-walled, clear-bottom tissue culture plates (Corning Life Sciences, Tewksbury, MA) after coating with FNC Coating Mix (AthenaES, Baltimore, MD). […] Assays of slc26a9-mediated anion exchange were done by initially recording YFP fluorescence prior to addition of 100 µL of NaI-substituted PBS to test wells, with the initial rate of Cl^-/I^- exchange deduced from fluorescence intensity by single exponential regression. […]

For assay [3], the system named is ENaC, CFTR or CaCC activity in human bronchial epithelial (HBE) cells. Description: Short-circuit current in well-differentiated HBE cells. Format: cell-based. Conditions: 10 µM, pre-treatment 20 min; amiloride, forskolin, CFTRinh-172, ATP additions.
Source text: as §2
HEK293 cells transfected with pIRES-YFP-slc26a9 were plated in 96-well black-walled, clear-bottom tissue culture plates (Corning Life Sciences, Tewksbury, MA) after coating with FNC Coating Mix (AthenaES, Baltimore, MD). […] Assays of slc26a9-mediated anion exchange were done by initially recording YFP fluorescence prior to addition of 100 µL of NaI-substituted PBS to test wells, with the initial rate of Cl^-/I^- exchange deduced from fluorescence intensity by single exponential regression. […] To assay SLC26A3 function, HEK293 cells transduced with lentiviral particles generated from the pLVX-IRES-mCherry-SLC26A3 transfer vector were transfected to express YFP for Cl^-/I^- exchange assays as described above; red fluorescence images were acquired to confirm SLC26A3 expression in cells. […]

“Also recorded” adds a separate entry of the source.

T2 sequence (P13569 whole entry, species assumed): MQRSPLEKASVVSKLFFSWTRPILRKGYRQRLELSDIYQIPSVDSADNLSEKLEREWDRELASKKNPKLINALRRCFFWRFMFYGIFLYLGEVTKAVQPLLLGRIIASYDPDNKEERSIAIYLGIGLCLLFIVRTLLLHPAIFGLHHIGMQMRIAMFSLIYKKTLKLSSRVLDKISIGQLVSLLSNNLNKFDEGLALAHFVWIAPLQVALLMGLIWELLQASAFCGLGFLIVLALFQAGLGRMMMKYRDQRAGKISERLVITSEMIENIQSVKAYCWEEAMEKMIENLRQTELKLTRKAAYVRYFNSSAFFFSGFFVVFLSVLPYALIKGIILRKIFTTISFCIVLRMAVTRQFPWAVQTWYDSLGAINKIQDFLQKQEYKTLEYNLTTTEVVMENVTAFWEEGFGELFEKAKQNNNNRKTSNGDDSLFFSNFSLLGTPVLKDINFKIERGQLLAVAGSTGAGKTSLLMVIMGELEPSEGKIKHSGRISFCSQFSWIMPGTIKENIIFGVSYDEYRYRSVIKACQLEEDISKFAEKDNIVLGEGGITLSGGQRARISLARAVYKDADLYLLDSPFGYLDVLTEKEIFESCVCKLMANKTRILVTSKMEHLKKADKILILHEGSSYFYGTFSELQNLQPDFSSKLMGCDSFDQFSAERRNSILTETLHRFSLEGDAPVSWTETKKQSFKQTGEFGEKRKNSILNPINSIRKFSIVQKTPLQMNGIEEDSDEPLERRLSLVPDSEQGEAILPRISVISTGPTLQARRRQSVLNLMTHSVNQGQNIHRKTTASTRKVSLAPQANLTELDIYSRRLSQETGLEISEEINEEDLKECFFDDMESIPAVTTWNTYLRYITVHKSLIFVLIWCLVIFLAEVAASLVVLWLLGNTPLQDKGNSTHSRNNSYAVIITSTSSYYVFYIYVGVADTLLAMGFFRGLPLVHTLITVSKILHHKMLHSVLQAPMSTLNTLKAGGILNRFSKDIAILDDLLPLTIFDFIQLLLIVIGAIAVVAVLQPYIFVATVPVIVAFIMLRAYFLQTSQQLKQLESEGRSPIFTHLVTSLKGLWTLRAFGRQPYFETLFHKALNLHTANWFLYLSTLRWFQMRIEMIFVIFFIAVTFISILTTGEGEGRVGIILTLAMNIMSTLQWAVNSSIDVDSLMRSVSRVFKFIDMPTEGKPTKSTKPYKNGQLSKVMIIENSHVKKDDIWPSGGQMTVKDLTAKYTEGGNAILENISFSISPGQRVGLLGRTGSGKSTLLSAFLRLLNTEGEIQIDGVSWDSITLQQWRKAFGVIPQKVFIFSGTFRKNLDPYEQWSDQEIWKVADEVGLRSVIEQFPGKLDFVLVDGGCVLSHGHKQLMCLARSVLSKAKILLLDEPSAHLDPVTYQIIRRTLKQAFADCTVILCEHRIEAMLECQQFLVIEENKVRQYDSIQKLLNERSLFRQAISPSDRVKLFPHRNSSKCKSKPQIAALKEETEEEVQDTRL

Regarding `Cc1c(CC(=O)O)c(=O)oc2c(C)c(OCc3cccc(Br)c3)ccc12` [Compound A1], the IC50 on slc26a3 [1] is ~100 nM; at slc26a3 [2], ~300 nM. Further, at CFTR, the “effect on activity of CFTR” value is listed as “did not alter the activity; also recorded: differences not significant”. In addition, in assay [3], the “effect on short-circuit current responses” value was “did not alter short-circuit current responses; also recorded: differences not significant”.

These data come from US20230339878A1, “SLC26A3 INHIBITORS AND USE THEREOF” (THE REGENTS OF THE UNIVERSITY OF CALIFORNIA, priority 2018, published 2023).
